Assays:
[1] = system: non-small cell lung cancer (NSCLC); test: Phase I dose finding study of Compound A, single agent; assay type: in vivo, human; details: one NSCLC subject, 1200 mg QD, preliminary
Experimental: Provisional doses for dose escalation can be found in the Table below. […]
In the dose expansion part, patients in Compound A single agent arm are treated with Compound A at the recommended dose and regimen selected based on the dose escalation data. This dose is expected to be safe and tolerated in adult patients in all indications included in the trial. The single agent arm consists of 3 distinct groups: KRAS- and/or BRAF-mutant NSCLC, KRAS- and/or BRAF-mutant ovarian cancer, and patients with other solid tumors (which may be advanced) harboring MAPK pathway alteration(s) such as relapsed/refractory melanoma after failure of BRAFi/MEKi combination therapy and NRAS-mutant melanoma patients.
This was further confirmed by preliminary results obtained from the clinical trial.

[2] = predicted human PK of Compound A
[3] = system: Calu-6 (KRAS Q61K) xenografts; test: Calu-6 xenograft in nude rats; assay type: in vivo
[4] = system: Calu-6 (KRAS Q61K) xenografts; test: Calu-6 xenograft in nude mice; assay type: in vivo
Experimental: Female nude tumor bearing Calu6 mice, n=6 per group were randomized into treatment groups on day 17 following tumor implantation, when the average tumor volume was 180 mm3. […] Dosing volume was 10 mL/kg. Tumor volumes were collected at the time of randomization and twice weekly thereafter for the study duration.
(§1) Regressions were also achieved in a second human NSCLC model, NCI-H358, at the 200 mg/kg QD dose in mice and in the human ovarian Hey-A8 xenograft at doses as low as 30 mg/kg QD in mice.

H727 Model = test: H727 model, KRASmt NSCLC xenograft; assay type: in vivo, mice; details: FIGS. 15A, 15B, 15C (H358, Calu6, H727 models); H727: 100 mg/kg daily oral, 14 days
[5] = system: Calu-6 (KRAS Q61K), HCT116 (KRAS G13D); test: cell-based anti-proliferative assay, Calu-6 and HCT116; details: Homo sapiens; range over Calu-6 and HCT116; read-out: IC50, inhibition of proliferation
[6] = system: Hey-A8 (KRAS G12D, BRAF G464E) xenografts; test: Hey-A8 ovarian xenograft in mice; assay type: in vivo
Experimental: as §1

[7] = system: SKMEL30 cells (NRAS Q61K melanoma cells); test: SKMEL30 NRAS-mutant melanoma xenograft in nude mice; assay type: in vivo; details: for % regression: day 21 post-implant (9 days of treatment)
Experimental: […]. Mice were randomized into treatment groups on day 12 post implantation, when the average tumor volume was ˜200 mm^3. […] Treatments began on day 12 and continued until day 21 post implantation. Tumor volume and body weights were collected at the time of randomization and twice per week for the study duration. Tumor volume was determined by measurement with calipers and calculated using a modified ellipsoid formula, where tumor volume (TV) (mm^3)=[((1×w2)×3.14159))/6], where 1 is the longest axis of the tumor and w is perpendicular to 1. Mice were monitored for tumor growth, body weight and body condition. Animal well-being and behavior were monitored twice weekly. General health of mice was monitored daily. The anti-tumor activity was determined by assessing % T/C or % regression on day 21 post-implant (9 days of treatment).

b-Raf = b-Raf (Homo sapiens, UniProt P15056); test: b-Raf biochemical assay; details: read-out: b-Raf IC-50
Sequence of b-Raf (P15056 2-766): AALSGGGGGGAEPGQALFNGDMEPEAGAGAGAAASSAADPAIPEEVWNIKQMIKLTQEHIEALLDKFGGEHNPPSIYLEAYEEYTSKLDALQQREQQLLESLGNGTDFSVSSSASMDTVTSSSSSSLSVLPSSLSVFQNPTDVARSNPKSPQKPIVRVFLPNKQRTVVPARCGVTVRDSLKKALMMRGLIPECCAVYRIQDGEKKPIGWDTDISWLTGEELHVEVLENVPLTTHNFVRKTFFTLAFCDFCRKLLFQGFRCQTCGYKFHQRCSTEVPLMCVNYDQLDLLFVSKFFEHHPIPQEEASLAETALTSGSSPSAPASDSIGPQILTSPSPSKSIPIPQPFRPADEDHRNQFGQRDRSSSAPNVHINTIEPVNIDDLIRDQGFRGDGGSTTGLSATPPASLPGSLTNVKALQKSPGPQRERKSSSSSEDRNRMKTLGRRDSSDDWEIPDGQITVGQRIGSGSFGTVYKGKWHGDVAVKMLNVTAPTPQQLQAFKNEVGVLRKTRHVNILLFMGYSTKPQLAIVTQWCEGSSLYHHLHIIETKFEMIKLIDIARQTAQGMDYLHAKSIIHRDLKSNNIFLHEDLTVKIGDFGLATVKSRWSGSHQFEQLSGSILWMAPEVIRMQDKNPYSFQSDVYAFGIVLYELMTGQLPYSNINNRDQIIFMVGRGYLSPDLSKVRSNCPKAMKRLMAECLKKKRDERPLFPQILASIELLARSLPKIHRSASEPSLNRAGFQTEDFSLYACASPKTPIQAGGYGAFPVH

[8] = system: NCI-H358 (KRAS G12C) xenografts; test: NCI-H358 xenograft in mice; assay type: in vivo
Experimental: SCID beige female tumor bearing NCI-H358 mice, n=8 per group, were randomized into 3 groups 14 days post tumor cell inoculation with an average tumor volume range of 259.44-262.47 mm^3.
Tumor volumes were measured by digital caliper 3 times a week and body weights of all animals were recorded through the course of treatment.
as §1

[9] = cell-based anti-proliferative assay, melanoma and NSCLC lines; details: Homo sapiens, read-out: IC50, inhibition of proliferation
[10] = tolerability in KRAS- and NRAS-mutant xenograft models (body weight); assay type: in vivo; details: all xenograft models
Experimental: as §1

c-Raf FL = c-Raf FL (Homo sapiens, UniProt P04049); test: c-Raf FL biochemical assay; details: read-out: c-Raf FL IC-50
Sequence of c-Raf FL (P04049 whole entry): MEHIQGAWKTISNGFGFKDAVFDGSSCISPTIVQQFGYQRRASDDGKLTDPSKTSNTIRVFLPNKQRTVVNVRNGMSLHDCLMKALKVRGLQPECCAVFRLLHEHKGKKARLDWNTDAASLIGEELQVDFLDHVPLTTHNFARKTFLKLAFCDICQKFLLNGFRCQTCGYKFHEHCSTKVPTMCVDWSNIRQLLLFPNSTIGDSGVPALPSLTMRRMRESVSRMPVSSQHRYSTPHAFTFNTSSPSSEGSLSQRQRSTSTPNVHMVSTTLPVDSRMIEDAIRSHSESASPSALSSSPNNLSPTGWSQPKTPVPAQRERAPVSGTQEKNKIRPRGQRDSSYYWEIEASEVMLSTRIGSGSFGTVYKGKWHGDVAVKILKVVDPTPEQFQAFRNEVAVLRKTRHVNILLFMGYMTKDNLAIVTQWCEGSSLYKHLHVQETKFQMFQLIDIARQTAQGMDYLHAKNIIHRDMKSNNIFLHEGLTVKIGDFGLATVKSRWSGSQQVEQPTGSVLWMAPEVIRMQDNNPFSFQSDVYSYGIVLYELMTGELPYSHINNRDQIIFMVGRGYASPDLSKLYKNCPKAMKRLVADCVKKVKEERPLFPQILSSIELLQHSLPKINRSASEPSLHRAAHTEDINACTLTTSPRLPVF

[11] = system: advanced NRAS-mutant melanoma; details: cited from earlier work
[12] = patients with NRAS-mutant melanoma

## Cc1ccc(NC(=O)c2ccnc(C(F)(F)F)c2)cc1-c1cc(OCCO)nc(N2CCOCC2)c1 [COMPOUND A, N-(3-(2-(2-hydroxyethoxy)-6-morpholinopyridin-4-yl)-4-methylphenyl)-2-(trifluoromethyl)isonicotinamide]
[1]
  partial response according to RECIST: −35%
[2]
  predicted half-life: ~9 h
[3]; 35 mg/kg QD, rats
  anti-tumor effect: Tumor stasis
[3]; 75 and 150 mg/kg QD, nude rats
  anti-tumor effect: regressions
[4]; 30 mg/kg QD, mice
  anti-tumor effect: Tumor stasis
[4]; 100, 200, and 300 mg/kg once daily (QD), nude mice
  anti-tumor effect: regressions
[4]; Calu-6 xenograft, dose not stated
  anti-tumor effect: tumor regression
[4]; Calu-6 xenograft, dose not stated, listed as Compound A
  anti-tumor effect: tumor regressions
H727 Model
  single agent activity in KRASmt NSCLC models: showed single agent activity
[5]
  IC50: 0.2 to 1.2 µM
[6]; Hey-A8 xenograft, dose not stated
  anti-tumor effect: tumor regression
[6]; Hey-A8 xenograft, dose not stated, listed as Compound A
  anti-tumor effect: tumor regressions
[6]; doses as low as 30 mg/kg QD, mice
  anti-tumor effect: Regressions
[7]; 25 mg/kg bid
  % regression: 48%
[7]; 100 mg/kg bid
  % regression: 59%
[7]; 25 and 100 mg/kg bid, body weight, toxicity signs, mortality
  tolerability: well tolerated
[7]; SK-MEL-30 melanoma model, dose not stated
  anti-tumor effect: tumor regression
b-Raf
  IC50: 0.00073 µM
[8]; 200 mg/kg QD, mice
  anti-tumor effect: Regressions
[8]; NCI-H358 xenograft, dose not stated
  anti-tumor effect: tumor regression
[8]; NCI-H358 xenograft, dose not stated, listed as Compound A
  anti-tumor effect: tumor regressions
[9]
  IC50: 0.2 to 1.2 µM
[10]
  tolerability judged by body weight loss: well tolerated
c-Raf FL
  IC50: 0.0002 µM

## Cn1cnc2c(F)c(Nc3ccc(Br)cc3F)c(C(=O)NOCCO)cc21 [binimetinib]
[11]; binimetinib vs. dacarbazine
  HR for PFS, in favor of binimetinib: 0.62 (0.47-0.80)
[11]; [12]
  discontinuation rate as a result of adverse events suspected to be related to study drug: 20%
  median PFS (95% CI): 2.8 (95% CI: 2.8-3.6)
  overall response rate: 15%
  overall survival (95% CI): 11.0 (95% CI: 8.9-13.6) months

## CN(C)/N=N/c1[nH]cnc1C(N)=O [dacarbazine]
[11]; [12]
  discontinuation rate as a result of adverse events suspected to be related to study drug: 5%
